Data from patent US20020086835A1, “Use of adenosine deaminase inhibitors to treat systemic inflammatory response syndrome” (priority 2000, published 2002).
Values belong to the molecule of their own block, whether it stands above or below them.

How the values were obtained:
[1] = system: adenosine deaminase; details: in perfusion medium, in the presence of 5′-amino-5′-deoxyadenosine; cited from earlier work
[2] = target: T1, adenosine deaminase (Homo sapiens, UniProt P00813); details: potency of inhibition of the enzyme
T1 sequence (P00813 1-363): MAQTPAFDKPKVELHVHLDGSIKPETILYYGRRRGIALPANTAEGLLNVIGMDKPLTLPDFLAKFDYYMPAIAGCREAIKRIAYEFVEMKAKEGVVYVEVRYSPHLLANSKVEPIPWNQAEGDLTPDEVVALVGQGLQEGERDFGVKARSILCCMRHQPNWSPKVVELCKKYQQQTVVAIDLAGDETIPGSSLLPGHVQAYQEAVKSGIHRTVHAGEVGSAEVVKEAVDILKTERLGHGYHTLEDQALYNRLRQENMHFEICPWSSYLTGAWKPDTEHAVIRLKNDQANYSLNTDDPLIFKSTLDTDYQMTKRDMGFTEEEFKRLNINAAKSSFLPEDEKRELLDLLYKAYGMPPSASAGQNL

[3] = target: T1, adenosine deaminase; details: read-out: Inhibitory constant for adenosine deaminase; cited from earlier work
[4] = system: TNF-α; assay: Serum TNF-α by ELISA in rats with chronic peritoneal sepsis (200 mg/kg cecal slurry ip); type: in vivo, rat; details: septic rats, versus saline-treated septic group
Experimental: Studies were conducted to determine if manipulation of adenosine-mediated events would result in alterations in the TNF-α response in this model. At the time of sepsis induction, rats were treated in one of four ways. One group received only 0.9% normal saline as a vehicle control (No Rx; n=6). […] The third group received the adenosine deaminase inhibitor, erythro-9-(2-hydroxy-3-nonyl)adenine (EHNA; 1 μmole/kg+1 μmole/kg/hr; iv; n=3). A fourth group received the adenosine receptor antagonist 8-sulfophenyltheophylline (SPT; 400 μg/kg/8 hours; n=5).
Sepsis was induced under pentobarbital anesthesia (50 mg/kg) in each rat by intraperitoneal (ip) injection of 200 mg/kg rat cecal contents mixed as a slurry in 5% dextrose in water (D5W). […] Non-septic controls received an equivalent volume ip injection of D5W. Polyethylene catheters (Intramedic PE-50, Baxter) were inserted into the right internal jugular vein and right carotid artery. The jugular catheter was used for venous access (drug infusions; volume replacement, etc). The carotid catheter was used to obtain arterial blood samples, and to monitor arterial blood pressure and heart rate. The catheters were secured in their respective vessels, tunneled subcutaneously to exit in the interscapular region, and filled with heparinized saline (50 units/ml 0.9% normal saline). Incisions were closed in layers using 3-0 silk. Rats were allowed to recover from anesthetic and provided food and water ad libitum,
Serum and tissue tumor necrosis factor-α (TNF-α) concentrations were determined by enzyme-linked immunosorbant assay. Samples of serum, liver, and spleen were collected, rapidly weighed, and frozen in liquid nitrogen. On the day of assay, tissues are added to labeled tubes containing lysis buffer (volume=10 ml/gram wt. with 1:10 dilution) and kept on ice. The lysis buffer is 20 mM Tris (pH 7.4) containing […] phenylmethylsulfonylflouride (PMSF), […] leupeptin, 0.7 g/ml pepstatin, and 2.0 g/ml aprotinin to inhibit proteases. Samples were immediately homogenized using five 3 see bursts, washing grinding pistol (3×) between samples with phosphate buffered saline. Samples are then centrifuged for 20 min at 2200 RPM, 4° C. The supernatant was removed and used for TNF-α measurements. Briefly, each microplate well contained 50 μl of assay diluent. To each well, 50 μl of standard, control, or serum/homogenate supernatant sample were added and mixed on an orbital plate shaker. Plates were incubated at room temperature for 2 hours. Each well was then aspirated and washed with wash buffer 4 times. After final aspiration of wash buffer, 100 μl of rat TNF-α conjugate was added to each well. Wells were then covered and incubated for 2 hours at room temperature. At the end of the incubation, the aspiration/wash procedure was repeated 4 times, after which 100 μl of stabilized chromogen solution was added to each well. Next, plates were incubated for 45 minutes at room temperature in a dark area. After this final incubation period, 100 μl stopping solution was added to each well. Optical density of each well at […] was determined within 30 minutes using a Biotek Instruments EL312e microtiter plate reader. Concentrations of TNF-α were calculated from the standard curves.
At the time of sepsis induction, rats were treated in one of three ways. One group received only 0.9% normal saline as a vehicle control (VEH, n=6, where n is the number of rats). […] A third group received the adenosine receptor antagonist, 8-sulfophenyltheo-phylline (SPT; 400 μg/kg/8 h; n=5). Serum TNF-α (pg/ml) was determined at 4 and 24 hours after sepsis induction by ELISA.
Male SD rats (350-400 g) were made septic by IP introduction of a 200 mg/kg cecal slurry. […] TNF-α (pg/ml) was determined at 4 and 24 hours after sepsis induction by ELISA.

[5] = human blood; cited from earlier work

Activity relative to pentostatin (times less active) [2]: one thousand
SMILES: CCCCCCC(C(C)O)n1cnc2c(N)ncnc21 (stereo not drawn) [EHNA, erythro-9-(2-hydroxy-3-nonyl)adenine]
Increase of adenosine release [1]: 15 fold | Ki [3]: 1 nM | Effect on serum TNF-α response to sepsis at 4 hours ([4]; 4 hours): attenuation of this response | Effect on serum TNF-α response to sepsis at 24 hours ([4]; 24 hours): attenuation of this response

SMILES: Nc1ncnc2c1ncn2[C@@H]1O[C@H](CO)[C@@H](O)[C@H]1O [Adenosine]
Half life [5]: < 1 s
